Reference: the kinase profiling compilation of Christmann-Franck et al. (2016)

Assays:
Assay in all cases: KINOMEscan competition binding
Conditions in all cases: compound 10.0 µM
PDGFRB (human) = PDGFRB (human) (UniProt P09619)
DCLK1 (human) = DCLK1 (human) (UniProt O15075)
NUAK2 (human) = NUAK2 (human) (UniProt Q9H093)
FLT3 (human) = FLT3 (human) (UniProt P36888)
RPS6KA1 KD2 (human) = RPS6KA1 KD2 (human) (UniProt Q15418)
PRKD3 (human) = PRKD3 (human) (UniProt O94806)
RPS6KA6 KD2 (human) = RPS6KA6 KD2 (human) (UniProt Q9UK32)
CAMKK2 (human) = CAMKK2 (human) (UniProt Q96RR4)
STK16 (human) = STK16 (human) (UniProt O75716)
ACVR1 (human) = ACVR1 (human) (UniProt Q04771)
PRKD1 (human) = PRKD1 (human) (UniProt Q15139)
[1] = tested on: RET (human), P07949 [V804L]
MAP3K3 (human) = MAP3K3 (human) (UniProt Q99759)
FGFR4 (human) = FGFR4 (human) (UniProt P22455)
AURKA (human) = AURKA (human) (UniProt O14965)
PIP5K1A (human) = PIP5K1A (human) (UniProt Q99755)
NUAK1 (human) = NUAK1 (human) (UniProt O60285)
CLK2 (human) = CLK2 (human) (UniProt P49760)
PLK4 (human) = PLK4 (human) (UniProt O00444)
PDGFRA (human) = PDGFRA (human) (UniProt P16234)
[2] = tested on: ABL1 (human), P00519 [T315I]
PRKAA1 (human) = PRKAA1 (human) (UniProt Q13131)
MAPK7 (human) = MAPK7 (human) (UniProt Q13164)
PIK3CA (human) = PIK3CA (human) (UniProt P42336)
PLK1 (human) = PLK1 (human) (UniProt P53350)
TAOK1 (human) = TAOK1 (human) (UniProt Q7L7X3)
MKNK2 (human) = MKNK2 (human) (UniProt Q9HBH9)
DCLK2 (human) = DCLK2 (human) (UniProt Q8N568)
[3] = target: TYK2 JH1 catalytic (human) (UniProt P29597)
PIK3CG (human) = PIK3CG (human) (UniProt P48736)
KIT (human) = KIT (human) (UniProt P10721)
AURKB (human) = AURKB (human) (UniProt Q96GD4)
[4] = tested on: KIT (human), P10721 [V559D/V654A]
TAOK3 (human) = TAOK3 (human) (UniProt Q9H2K8)
CSF1R (human) = CSF1R (human) (UniProt P07333)
TNK2 (human) = TNK2 (human) (UniProt Q07912)
TNK1 (human) = TNK1 (human) (UniProt Q13470)
[5] = tested on: FLT3 (human), P36888 [K663Q]
ROS1 (human) = ROS1 (human) (UniProt P08922)
PIK3CD (human) = PIK3CD (human) (UniProt O00329)
[6] = tested on: FLT3 (human), P36888 [ITD]
[7] = tested on: KIT (human), P10721 [V559D]
BMPR1B (human) = BMPR1B (human) (UniProt O00238)
GAK (human) = GAK (human) (UniProt O14976)
AURKC (human) = AURKC (human) (UniProt Q9UQB9)
BRSK2 (human) = BRSK2 (human) (UniProt Q8IWQ3)
MARK4 (human) = MARK4 (human) (UniProt Q96L34)
SRPK1 (human) = SRPK1 (human) (UniProt Q96SB4)
[8] = tested on: RET (human), P07949 [M918T]
MERTK (human) = MERTK (human) (UniProt Q12866)
FLT4 (human) = FLT4 (human) (UniProt P35916)
PRKCD (human) = PRKCD (human) (UniProt Q05655)
STK33 (human) = STK33 (human) (UniProt Q9BYT3)
PLK3 (human) = PLK3 (human) (UniProt Q9H4B4)
PRKCQ (human) = PRKCQ (human) (UniProt Q04759)
TTK (human) = TTK (human) (UniProt P33981)
PKN1 (human) = PKN1 (human) (UniProt Q16512)
NLK (human) = NLK (human) (UniProt Q9UBE8)
MYLK (human) = MYLK (human) (UniProt Q15746)

Sequence of PLK1 (human) (P53350 whole entry, looked up): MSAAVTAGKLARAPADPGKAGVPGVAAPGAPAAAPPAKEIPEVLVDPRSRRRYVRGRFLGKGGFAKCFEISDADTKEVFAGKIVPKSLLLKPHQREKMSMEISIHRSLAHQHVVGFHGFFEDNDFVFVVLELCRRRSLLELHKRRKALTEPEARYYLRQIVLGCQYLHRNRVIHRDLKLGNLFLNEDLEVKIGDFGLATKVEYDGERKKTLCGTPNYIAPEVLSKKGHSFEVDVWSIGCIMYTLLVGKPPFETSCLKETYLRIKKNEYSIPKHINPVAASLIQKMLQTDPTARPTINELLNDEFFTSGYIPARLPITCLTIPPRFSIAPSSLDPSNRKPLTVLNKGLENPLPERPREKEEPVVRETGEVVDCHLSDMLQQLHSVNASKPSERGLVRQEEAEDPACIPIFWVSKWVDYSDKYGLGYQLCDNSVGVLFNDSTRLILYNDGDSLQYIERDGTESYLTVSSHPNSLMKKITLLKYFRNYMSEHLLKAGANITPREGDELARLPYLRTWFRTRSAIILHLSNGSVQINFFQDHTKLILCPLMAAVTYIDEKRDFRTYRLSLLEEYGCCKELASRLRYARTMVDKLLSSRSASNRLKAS
Sequence of MAPK7 (human) (Q13164 whole entry, looked up): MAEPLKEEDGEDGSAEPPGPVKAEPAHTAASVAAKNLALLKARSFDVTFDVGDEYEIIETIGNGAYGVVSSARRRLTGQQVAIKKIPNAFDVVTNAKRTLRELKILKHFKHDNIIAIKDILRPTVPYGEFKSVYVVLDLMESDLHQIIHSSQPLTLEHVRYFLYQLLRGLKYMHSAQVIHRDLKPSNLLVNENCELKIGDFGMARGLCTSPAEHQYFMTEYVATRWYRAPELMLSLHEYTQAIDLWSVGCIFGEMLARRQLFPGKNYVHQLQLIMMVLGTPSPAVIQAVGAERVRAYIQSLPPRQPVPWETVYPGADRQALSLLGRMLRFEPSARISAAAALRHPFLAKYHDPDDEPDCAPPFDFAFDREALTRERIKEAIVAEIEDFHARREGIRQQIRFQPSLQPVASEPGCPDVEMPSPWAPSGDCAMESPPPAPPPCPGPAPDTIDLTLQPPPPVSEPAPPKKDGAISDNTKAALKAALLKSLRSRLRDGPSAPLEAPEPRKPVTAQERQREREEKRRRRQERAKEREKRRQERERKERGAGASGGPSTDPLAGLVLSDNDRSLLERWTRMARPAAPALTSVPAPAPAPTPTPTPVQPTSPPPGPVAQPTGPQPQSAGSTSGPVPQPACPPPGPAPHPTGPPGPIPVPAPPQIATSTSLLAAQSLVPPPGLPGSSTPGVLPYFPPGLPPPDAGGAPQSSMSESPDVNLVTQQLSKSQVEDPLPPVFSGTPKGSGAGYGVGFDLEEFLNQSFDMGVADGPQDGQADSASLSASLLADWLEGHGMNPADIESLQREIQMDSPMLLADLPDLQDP
Sequence of RET (human), P07949 [V804L] (P07949 whole entry V804L, looked up): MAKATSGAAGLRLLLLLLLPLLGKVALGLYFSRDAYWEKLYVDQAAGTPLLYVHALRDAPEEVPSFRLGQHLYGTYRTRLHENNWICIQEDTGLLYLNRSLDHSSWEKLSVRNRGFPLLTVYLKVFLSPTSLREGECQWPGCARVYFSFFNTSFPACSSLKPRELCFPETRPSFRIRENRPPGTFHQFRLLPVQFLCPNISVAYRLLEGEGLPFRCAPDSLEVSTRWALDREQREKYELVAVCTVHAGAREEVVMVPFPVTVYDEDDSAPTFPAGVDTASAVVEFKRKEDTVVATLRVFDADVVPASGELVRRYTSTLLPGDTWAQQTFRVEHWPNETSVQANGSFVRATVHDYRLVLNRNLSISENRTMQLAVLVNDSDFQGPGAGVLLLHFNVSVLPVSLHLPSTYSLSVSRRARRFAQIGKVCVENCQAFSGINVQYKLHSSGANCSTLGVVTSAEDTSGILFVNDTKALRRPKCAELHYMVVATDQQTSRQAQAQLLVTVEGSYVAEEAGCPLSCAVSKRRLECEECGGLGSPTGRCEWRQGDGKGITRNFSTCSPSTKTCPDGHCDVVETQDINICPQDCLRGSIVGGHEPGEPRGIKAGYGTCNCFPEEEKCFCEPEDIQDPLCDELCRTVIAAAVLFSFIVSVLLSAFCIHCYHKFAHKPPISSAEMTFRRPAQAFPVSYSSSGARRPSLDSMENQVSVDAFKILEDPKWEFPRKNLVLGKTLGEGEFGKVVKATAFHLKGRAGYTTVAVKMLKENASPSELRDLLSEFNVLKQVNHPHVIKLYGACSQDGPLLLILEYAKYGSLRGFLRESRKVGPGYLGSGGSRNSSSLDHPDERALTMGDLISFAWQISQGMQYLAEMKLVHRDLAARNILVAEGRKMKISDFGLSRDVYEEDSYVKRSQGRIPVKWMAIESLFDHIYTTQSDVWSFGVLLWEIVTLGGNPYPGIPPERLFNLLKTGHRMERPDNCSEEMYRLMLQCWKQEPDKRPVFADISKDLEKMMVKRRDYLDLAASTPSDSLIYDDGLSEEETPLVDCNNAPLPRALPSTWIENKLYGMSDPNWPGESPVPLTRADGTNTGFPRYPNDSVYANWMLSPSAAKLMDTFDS
Sequence of DCLK2 (human) (Q8N568 whole entry, looked up): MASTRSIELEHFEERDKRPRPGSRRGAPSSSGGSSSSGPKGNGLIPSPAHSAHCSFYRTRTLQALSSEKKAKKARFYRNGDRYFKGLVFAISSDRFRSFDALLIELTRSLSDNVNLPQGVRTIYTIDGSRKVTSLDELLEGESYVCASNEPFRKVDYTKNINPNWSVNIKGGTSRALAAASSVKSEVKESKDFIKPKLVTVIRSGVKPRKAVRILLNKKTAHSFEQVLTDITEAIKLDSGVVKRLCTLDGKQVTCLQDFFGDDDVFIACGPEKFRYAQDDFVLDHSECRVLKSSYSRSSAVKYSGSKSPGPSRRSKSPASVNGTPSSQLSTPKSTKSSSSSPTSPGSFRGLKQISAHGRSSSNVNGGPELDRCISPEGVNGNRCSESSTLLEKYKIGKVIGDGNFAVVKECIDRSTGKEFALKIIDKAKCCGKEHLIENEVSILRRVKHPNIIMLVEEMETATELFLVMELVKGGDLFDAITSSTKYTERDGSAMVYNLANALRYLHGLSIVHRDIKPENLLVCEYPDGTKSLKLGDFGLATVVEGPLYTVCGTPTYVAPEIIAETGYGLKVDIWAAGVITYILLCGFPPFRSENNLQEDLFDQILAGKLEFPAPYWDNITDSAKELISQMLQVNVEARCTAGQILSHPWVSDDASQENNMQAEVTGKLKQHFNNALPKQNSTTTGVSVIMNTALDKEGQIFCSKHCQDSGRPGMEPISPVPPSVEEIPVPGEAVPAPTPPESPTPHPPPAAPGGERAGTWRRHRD
Sequence of GAK (human) (O14976 whole entry, looked up): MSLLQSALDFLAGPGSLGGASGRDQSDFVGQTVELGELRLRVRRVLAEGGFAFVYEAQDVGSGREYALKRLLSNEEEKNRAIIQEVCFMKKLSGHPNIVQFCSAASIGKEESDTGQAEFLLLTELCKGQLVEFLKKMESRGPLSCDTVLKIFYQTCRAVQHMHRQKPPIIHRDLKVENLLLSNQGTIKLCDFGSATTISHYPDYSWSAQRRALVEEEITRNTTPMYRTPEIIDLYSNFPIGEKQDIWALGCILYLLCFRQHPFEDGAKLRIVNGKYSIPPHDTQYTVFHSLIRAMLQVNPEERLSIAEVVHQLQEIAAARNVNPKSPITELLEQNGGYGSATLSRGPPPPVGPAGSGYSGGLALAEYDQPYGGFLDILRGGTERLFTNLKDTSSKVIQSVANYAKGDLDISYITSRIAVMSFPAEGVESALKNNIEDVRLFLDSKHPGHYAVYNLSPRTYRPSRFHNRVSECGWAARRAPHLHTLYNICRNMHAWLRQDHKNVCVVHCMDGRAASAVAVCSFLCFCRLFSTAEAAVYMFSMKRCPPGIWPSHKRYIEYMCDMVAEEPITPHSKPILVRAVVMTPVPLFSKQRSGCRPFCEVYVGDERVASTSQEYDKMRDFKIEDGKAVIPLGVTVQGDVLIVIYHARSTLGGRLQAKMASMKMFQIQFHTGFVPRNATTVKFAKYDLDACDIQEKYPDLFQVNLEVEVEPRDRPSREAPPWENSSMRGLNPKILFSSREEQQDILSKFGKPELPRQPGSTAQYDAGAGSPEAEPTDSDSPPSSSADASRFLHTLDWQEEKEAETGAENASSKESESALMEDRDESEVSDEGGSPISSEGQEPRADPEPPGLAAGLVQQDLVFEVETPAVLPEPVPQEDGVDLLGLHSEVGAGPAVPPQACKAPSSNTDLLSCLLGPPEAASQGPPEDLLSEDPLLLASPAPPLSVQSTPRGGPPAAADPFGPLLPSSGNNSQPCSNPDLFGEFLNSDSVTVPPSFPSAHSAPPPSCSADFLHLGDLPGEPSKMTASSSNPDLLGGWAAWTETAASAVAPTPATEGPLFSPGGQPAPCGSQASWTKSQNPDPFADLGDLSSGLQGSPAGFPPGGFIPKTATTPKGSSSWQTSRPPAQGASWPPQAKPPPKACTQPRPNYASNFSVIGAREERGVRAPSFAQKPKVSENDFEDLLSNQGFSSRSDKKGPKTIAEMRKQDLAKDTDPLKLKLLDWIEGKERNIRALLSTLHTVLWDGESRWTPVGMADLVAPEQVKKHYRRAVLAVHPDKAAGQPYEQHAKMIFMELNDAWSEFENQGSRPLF
Sequence of MKNK2 (human) (Q9HBH9 whole entry, looked up): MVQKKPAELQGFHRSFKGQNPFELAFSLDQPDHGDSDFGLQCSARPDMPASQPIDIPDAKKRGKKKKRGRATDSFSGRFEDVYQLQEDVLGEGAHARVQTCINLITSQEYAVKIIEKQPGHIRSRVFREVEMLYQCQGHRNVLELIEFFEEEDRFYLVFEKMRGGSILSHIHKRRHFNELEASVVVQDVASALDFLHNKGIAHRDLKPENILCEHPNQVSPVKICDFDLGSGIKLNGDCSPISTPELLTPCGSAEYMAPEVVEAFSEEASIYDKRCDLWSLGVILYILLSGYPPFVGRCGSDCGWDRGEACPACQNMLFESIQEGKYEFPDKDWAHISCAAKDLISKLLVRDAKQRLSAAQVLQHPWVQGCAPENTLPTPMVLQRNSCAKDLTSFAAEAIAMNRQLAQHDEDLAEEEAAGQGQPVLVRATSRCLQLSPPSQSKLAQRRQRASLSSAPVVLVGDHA

**Q.** For `CN1C(=O)c2ccccc2N(C)c2nc(Nc3ccc(N4CCC(O)CC4)cn3)ncc21`, which kinase still bound, per cent of control (PDGFRB (human)) is on record?
**A.** 2.6%

**Q.** What about the kinase still bound, per cent of control (DCLK1 (human)) of the same molecule?
**A.** 0.3%

**Q.** What about the kinase still bound, per cent of control (NUAK2 (human)) of the same molecule?
**A.** 22%

**Q.** What about the kinase still bound, per cent of control (FLT3 (human)) of the same molecule?
**A.** 8.1%

**Q.** And the kinase still bound, per cent of control (RPS6KA1 KD2 (human))?
**A.** 34%

**Q.** And the kinase still bound, per cent of control (PRKD3 (human))?
**A.** 20%

**Q.** And the kinase still bound, per cent of control (RPS6KA6 KD2 (human))?
**A.** 30%

**Q.** And the kinase still bound, per cent of control (CAMKK2 (human))?
**A.** 31%

**Q.** What about the kinase still bound, per cent of control (STK16 (human)) of the same molecule?
**A.** 31%

**Q.** And the kinase still bound, per cent of control (ACVR1 (human))?
**A.** 29%

**Q.** And the kinase still bound, per cent of control (PRKD1 (human))?
**A.** 21%

**Q.** What about the kinase still bound, per cent of control [1] of the same molecule?
**A.** 34%

**Q.** And the kinase still bound, per cent of control (MAP3K3 (human))?
**A.** 2.2%

**Q.** And the kinase still bound, per cent of control (FGFR4 (human))?
**A.** 25%

**Q.** And the kinase still bound, per cent of control (AURKA (human))?
**A.** 8.2%

**Q.** What about the kinase still bound, per cent of control (PIP5K1A (human)) of the same molecule?
**A.** 26%

**Q.** What about the kinase still bound, per cent of control (NUAK1 (human)) of the same molecule?
**A.** 30%

**Q.** And the kinase still bound, per cent of control (CLK2 (human))?
**A.** 32%

**Q.** And the kinase still bound, per cent of control (PLK4 (human))?
**A.** 7.2%

**Q.** What about the kinase still bound, per cent of control (PDGFRA (human)) of the same molecule?
**A.** 8%

**Q.** And the kinase still bound, per cent of control [2]?
**A.** 19%

**Q.** What about the kinase still bound, per cent of control (PRKAA1 (human)) of the same molecule?
**A.** 23%

**Q.** And the kinase still bound, per cent of control (MAPK7 (human))?
**A.** 0%

**Q.** What about the kinase still bound, per cent of control (PIK3CA (human)) of the same molecule?
**A.** 33%

**Q.** What about the kinase still bound, per cent of control (PLK1 (human)) of the same molecule?
**A.** 24%

**Q.** What about the kinase still bound, per cent of control (TAOK1 (human)) of the same molecule?
**A.** 1%

**Q.** What about the kinase still bound, per cent of control (MKNK2 (human)) of the same molecule?
**A.** 1.6%

**Q.** And the kinase still bound, per cent of control (DCLK2 (human))?
**A.** 0.5%

**Q.** And the kinase still bound, per cent of control [3]?
**A.** 18%

**Q.** And the kinase still bound, per cent of control (PIK3CG (human))?
**A.** 2.2%

**Q.** What about the kinase still bound, per cent of control (KIT (human)) of the same molecule?
**A.** 3.1%

**Q.** What about the kinase still bound, per cent of control (AURKB (human)) of the same molecule?
**A.** 25%

**Q.** And the kinase still bound, per cent of control [4]?
**A.** 26%

**Q.** What about the kinase still bound, per cent of control (TAOK3 (human)) of the same molecule?
**A.** 0.4%

**Q.** And the kinase still bound, per cent of control (CSF1R (human))?
**A.** 14%

**Q.** What about the kinase still bound, per cent of control (TNK2 (human)) of the same molecule?
**A.** 31%

**Q.** And the kinase still bound, per cent of control (TNK1 (human))?
**A.** 0.6%

**Q.** What about the kinase still bound, per cent of control [5] of the same molecule?
**A.** 12%

**Q.** And the kinase still bound, per cent of control (ROS1 (human))?
**A.** 28%

**Q.** And the kinase still bound, per cent of control (PIK3CD (human))?
**A.** 33%

**Q.** And the kinase still bound, per cent of control [6]?
**A.** 33%

**Q.** And the kinase still bound, per cent of control [7]?
**A.** 1.8%

**Q.** And the kinase still bound, per cent of control (BMPR1B (human))?
**A.** 19%

**Q.** And the kinase still bound, per cent of control (GAK (human))?
**A.** 33%

**Q.** What about the kinase still bound, per cent of control (AURKC (human)) of the same molecule?
**A.** 3.7%

**Q.** Which results are given for `COc1cc(C(=O)NC2CCN(C)CC2)ccc1Nc1ncc2c(n1)N(C1CCCC1)CCC(=O)N2C(C)C`?
**A.** kinase still bound, per cent of control (BRSK2 (human)): 0%; kinase still bound, per cent of control (MARK4 (human)): 0%; kinase still bound, per cent of control (SRPK1 (human)): 0%; kinase still bound, per cent of control [8]: 0%; kinase still bound, per cent of control [1]: 0%; kinase still bound, per cent of control (PIP5K1A (human)): 6.4%; kinase still bound, per cent of control (PLK1 (human)): 17%; kinase still bound, per cent of control (MERTK (human)): 34%; kinase still bound, per cent of control (FLT4 (human)): 0%; kinase still bound, per cent of control (PRKCD (human)): 0%; kinase still bound, per cent of control (STK33 (human)): 32%

**Q.** How did the kinase still bound, per cent of control (DCLK1 (human)) turn out when `COc1cc(C(N)=O)ccc1Nc1ncc2c(n1)N(C1CCCC1)[C@@H]1CCC[C@@H]1C(=O)N2C` was run?
**A.** 29%

**Q.** What about the kinase still bound, per cent of control (PLK3 (human)) of the same molecule?
**A.** 1.7%

**Q.** What about the kinase still bound, per cent of control (PRKCQ (human)) of the same molecule?
**A.** 31%

**Q.** What about the kinase still bound, per cent of control (TTK (human)) of the same molecule?
**A.** 13%

**Q.** And the kinase still bound, per cent of control (PKN1 (human))?
**A.** 27%

**Q.** What about the kinase still bound, per cent of control (NLK (human)) of the same molecule?
**A.** 25%

**Q.** What about the kinase still bound, per cent of control (MAPK7 (human)) of the same molecule?
**A.** 0.15%

**Q.** What about the kinase still bound, per cent of control (PLK1 (human)) of the same molecule?
**A.** 16%

**Q.** And the kinase still bound, per cent of control (DCLK2 (human))?
**A.** 24%

**Q.** What about the kinase still bound, per cent of control (MYLK (human)) of the same molecule?
**A.** 25%

**Q.** What about the kinase still bound, per cent of control (GAK (human)) of the same molecule?
**A.** 33%
